Assay results: patent US20040063660A1, “Diasteriomers of S-adenosyl-l-methionine and uses thereof” (priority 2000, published 2004)

Assays:
[1] = suggested; control of morning sickness during pregnancy; cited from earlier work
[2] = system: methyltransferases; details: other methyltransferases; cited from earlier work
[3] = system: S-adenosyl-l-methionine-dependent methyltransferases; details: cited from earlier work
[4] = system: patients with major depressive episode (DSM-III); assay: open, non-blind study of depression, Hamilton Rating Scale for Depression; type: in vivo, human; details: 400 mg twice daily, 14 days
Procedure: (S,S)-S-adenosyl-l-methionine p-toluene sulfonate 400 mg was administered twice daily in an open, non-blind study of 10 volunteers who gave informed consent. All patients had normal results on pre-study medical examinations, including laboratory examinations. Patients received 400 mg of (S,S)-S-adenosyl-l-methionine p-toluene sulfonate in an enteric-coated tablet form twice daily for 14 days or until remission of depression symptoms. The 10 patients satisfied the DSM-III criteria for a major depressive episode. Patients' symptoms were monitored daily using the Hamilton Rating Scale for Depression. 9 patients completed the study. […] One patient had no change at all.

[5] = system: nucleolar 2-0-methyltransferase; details: vs (R,S) diasteriomer; cited from earlier work
[6] = system: brain oxidative status; details: chronically administered, rats; cited from earlier work
[7] = system: liver glutathione; details: oral, patients with and without liver disease; cited from earlier work
[8] = system: memory; details: treated vs age matched untreated animals, old and young; cited from earlier work
[9] = system: muscarinic receptors; details: rats treated chronically; cited from earlier work
[10] = system: Alzheimer's disease; details: preliminary study; cited from earlier work
[11] = system: intrahepatic cholestasis; details: oral, intrahepatic cholestasis patients; cited from earlier work
[12] = system: migraines; details: human, in vivo; cited from earlier work
[13] = system: human erythrocytes; details: incubated in vitro with human erythrocytes; cited from earlier work
[14] = system: alcoholic liver cirrhosis; details: oral, vs placebo treated group; cited from earlier work
[15] = system: total parenteral nutrition-induced cholestasis; details: rat; cited from earlier work
[16] = system: tumor necrosis factor alpha; details: cited from earlier work
[17] = system: primary fibromyalgia; details: oral, short-term trial; cited from earlier work
[18] = system: peripheral occlusive arterial disease; details: patients with peripheral occlusive arterial disease; cited from earlier work
[19] = system: beta-adrenergic; details: L-form vs D-enantiomer; cited from earlier work
[20] = enteric-coated tablet, 9 patients completed

O=C1CCC(N2C(=O)c3ccccc3C2=O)C(=O)N1 (single isomer, unassigned) [D-enantiomer of thalidomide, thalidomide]
safety and effect of thalidomide enantiomer in pregnancy [1]: safe and effective sedative

O=C1CCC(N2C(=O)c3ccccc3C2=O)C(=O)N1 (single isomer, unassigned) [L-enantiomer, thalidomide]
safety and effect of thalidomide enantiomer in pregnancy [1]: potent teratogen

C[S@@+](CC[C@@H](N)C(=O)O)C[C@H]1O[C@@H](n2cnc3c(N)ncnc32)[C@H](O)[C@@H]1O [(R,S)-S-adenosyl-l-methionine]
binding relative to (S,S)-S-adenosyl-l-methionine [2]: to the same extent | inhibition of enzyme-catalyzed transmethylation reactions [3]: potent inhibitor

C[S@@+](CC[C@H](N)C(=O)O)C[C@H]1O[C@@H](n2cnc3c(N)ncnc32)[C@H](O)[C@@H]1O.Cc1ccc(S(=O)(=O)[O-])cc1 [(S,S)-S-adenosyl-l-methionine p-toluene sulfonate]
side effects (reported, laboratory or physical examination) [4]: No side effects were noted or reported | patients who completed the trial and improved (Hamilton Rating Scale for Depression) [4, 20]: Eight of the nine | patients with no change [4, 20]: One

C[S@@+](CC[C@H](N)C(=O)O)C[C@H]1O[C@@H](n2cnc3c(N)ncnc32)[C@H](O)[C@@H]1O [(S,S)-S-adenosyl-l-methionine]
tightness of enzyme binding relative to (R,S)-S-adenosyl-l-methionine [5]: 10 fold

C[S+](CC[C@H](N)C(=O)[O-])C[C@H]1O[C@@H](n2cnc3c(N)ncnc32)[C@H](O)[C@@H]1O (stereo partly drawn) [S-adenosyl-l-methionine]
oxidative status in the brain [6]: enhancing anti-oxidative defenses | liver glutathione levels [7]: increases in liver glutathione levels | performance in eight arm radical maze test versus untreated animals [8]: out-perform | number of muscarinic receptors in the brain [9]: increase the number of muscarinic receptors | cognitive effect in patients with Alzheimer's disease [10]: cognitive improvement | pruritus and biochemical markers of cholestasis [11]: improvements in both the pruritus as well as the biochemical markers of cholestasis | benefit in migraines [12]: found to be of benefit | ATP within the erythrocyte [13]: increases ATP within the cell | overall mortality and/or progression to liver transplant [14]: 12% | cholestasis resulting from total parenteral nutrition [15]: able to prevent cholestasis | amount of tumor necrosis factor alpha secreted by cells [16]: decrease the amount | damage caused by tumor necrosis factor alpha [16]: attenuates the damage | improvement in primary fibromyalgia [17]: significant improvement | blood viscosity [18]: reduce blood viscosity

CC(C)NCC(O)COc1cccc2ccccc12 (centres unmarked) [propranolol]
potency relative to the D-enantiomer [19]: 100 times
